Assay results published in PubChem BioAssay (NCI).
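How tested: cells in 96-well plates exposed to compound for 48 hours at five concentrations. GI50 is the concentration that inhibits growth by half. TGI marks complete inhibition of growth.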

Key:
Experiment in all cases: growth of human tumour cells (NCI), 48 h
ACHN renal = test system: ACHN renal
EKVX NSCLC = test system: EKVX NSCLC
HCT-116 colon = test system: HCT-116 colon
HCT-15 colon = test system: HCT-15 colon
HOP-92 NSCLC = test system: HOP-92 NSCLC
NCI-H23 lung = test system: NCI-H23 lung
RPMI-8226 leukemia = test system: RPMI-8226 leukemia
SK-MEL-2 melanoma = test system: SK-MEL-2 melanoma
SNB-19 CNS = test system: SNB-19 CNS
T-47D breast = test system: T-47D breast

| SMILES | GI50 (ACHN renal) [µM] | TGI (ACHN renal) [µM] | GI50 (EKVX NSCLC) [µM] | TGI (EKVX NSCLC) [µM] | GI50 (HCT-116 colon) [µM] | TGI (HCT-116 colon) [µM] | GI50 (HCT-15 colon) [µM] | TGI (HCT-15 colon) [µM] | GI50 (HOP-92 NSCLC) [µM] | TGI (HOP-92 NSCLC) [µM] | GI50 (NCI-H23 lung) [µM] | TGI (NCI-H23 lung) [µM] | GI50 (RPMI-8226 leukemia) [µM] | TGI (RPMI-8226 leukemia) [µM] | GI50 (SK-MEL-2 melanoma) [µM] | TGI (SK-MEL-2 melanoma) [µM] | GI50 (SNB-19 CNS) [µM] | TGI (SNB-19 CNS) [µM] | GI50 (T-47D breast) [µM] | TGI (T-47D breast) [µM] |
| --- | --- | --- | --- | --- | --- | --- | --- | --- | --- | --- | --- | --- | --- | --- | --- | --- | --- | --- | --- | --- |
| CCC1C[N+]2=C(c3cc(OC)c(OC)cc3CC2)c2c1cc1n2CCc2cc(OC)c(OC)cc2-1 (configuration not stated) | 14.7 | 30.1 | 6.62 | > 100 | 2.89 | 13.1 | 14 | 34.7 | 1.78 | 6.08 | 2.77 | 18.7 | 0.576 | 15 | 2.67 | 7.31 | 2.75 | 15.7 | 0.746 | 5.51 |
| CCN1Cc2c(/C=C/c3ccccc3)nc3ccc(OC)cc3c2N(c2cccc(Cl)c2)C1 | 1.61 | 3.08 | 1.79 | 3.9 | 1.67 | 3.8 | 1.74 | 3.63 | 1.62 | 3.77 | 1.67 | 4.2 | 1.65 | 4.71 | 1.72 | 3.56 | 2.13 | 5.15 | 1.74 | 4.18 |
| C=C(C)C1Cc2cc(C(C)=O)ccc2O1 (configuration not stated) | – | > 100 | – | > 100 | – | > 100 | – | > 100 | – | > 100 | – | > 100 | – | > 100 | – | > 100 | – | > 100 | – | > 100 |
| C=C(C)[C@@H]1CC[C@]2(COC(=O)c3ccccc3C(=O)O)CC[C@]3(C)[C@H](CC[C@@H]4[C@@]5(C)CC[C@H](OC(=O)c6ccccc6C(=O)O)C(C)(C)[C@@H]5CC[C@]43C)[C@@H]12 | 28 | > 100 | 37.4 | > 100 | 33.1 | > 100 | 31.3 | > 100 | 19.6 | 64.5 | 42.7 | > 100 | 14.8 | > 100 | 20.6 | 54.1 | 23.2 | > 100 | 19.7 | 75.8 |
| CCSc1nc(N)c(C#N)c(-c2ccc(OC)c(OC)c2)c1C#N | > 50 | > 50 | 32.2 | > 50 | 16.4 | 47.5 | > 50 | > 50 | 6.49 | > 50 | 40.3 | > 50 | 14.8 | > 50 | 13.3 | > 50 | 24.7 | > 50 | > 50 | > 50 |
| NCCNc1nc2ccc(F)cc2c2c(=O)c3cc(F)ccc3sc12 | 1.5 | 2.83 | 1.65 | 3.95 | 1.61 | 2.96 | 1.78 | 3.37 | 1.02 | 4.6 | 1.65 | 3.18 | 2.18 | 5.11 | 1.95 | 4.28 | 1.94 | 4.21 | 1.72 | 3.72 |
| CCOc1cc(CCNC)c2c(ccc3ccc(OC)c(O)c32)c1OC | – | 26.5 | – | 36.3 | – | 22.1 | – | 35.7 | – | 25.2 | – | 27.1 | – | > 100 | – | 34.2 | – | 30.1 | – | 51.1 |
| CN1CCN(c2ccc(NC(=O)c3cncnc3Nc3ccc4c(ccn4Cc4cccc(F)c4)c3)cc2)CC1 | 1.73 | 5.89 | 4.78 | 9.37 | 1 | 3.55 | 0.943 | 4 | 3.54 | 8.42 | 4.35 | 9.14 | 0.754 | 1.79 | 5.2 | 10.7 | 4.42 | 8.96 | 2.03 | 8.15 |
| COc1ccc2c3c1OC1C4(CCC5C(C2)N(CC2CC2)CCC351)OCCO4 (configuration not stated) | – | > 100 | – | > 100 | – | > 100 | – | > 100 | – | > 100 | – | > 100 | – | > 100 | – | > 100 | – | > 100 | – | > 100 |
| COC(=O)C1OC(SCCN)C(O)C(O)C1O (configuration not stated) | – | > 100 | – | > 100 | – | > 100 | – | > 100 | – | > 100 | – | > 100 | – | > 100 | – | > 100 | – | > 100 | – | > 100 |
| COc1ncc(-c2ccc3ncnc(Nc4cccc(Cl)c4)c3c2)cc1NS(C)(=O)=O | 0.485 | > 100 | 0.579 | 9.65 | 2.33 | 10.9 | 1.66 | 13.2 | 0.472 | 5.28 | 1.62 | 8.69 | 2.19 | 9.24 | 2.27 | 8.25 | 3.19 | 31.3 | 0.169 | 1.33 |
| NC(=O)/C=C/c1c[nH]c2nccnc12 | – | > 53.6 | – | 24.7 | – | > 37.5 | – | 55.7 | – | > 28.8 | – | 2.74 | – | > 100 | – | 3.95 | – | > 16.7 | – | 23.5 |
| O=C(O)c1ccccc1C(=O)Nc1cc2c(cc1Br)-c1ccccc1C2=O | – | > 100 | – | > 100 | – | > 100 | – | > 100 | – | > 100 | – | > 100 | – | > 100 | – | > 100 | – | > 100 | – | > 100 |
| COc1ccccc1N1CCN(CC(O)Cn2c(=O)c3c(OC)nc(C)cc3c(=O)n2-c2ccccc2)CC1 (configuration not stated) | 37.9 | > 100 | 66.1 | > 100 | 67.3 | > 100 | > 100 | > 100 | 15.7 | 36 | 59.1 | > 100 | 39.6 | > 100 | 43.9 | > 100 | 25.5 | > 100 | > 100 | > 100 |
| N#CC1=C(N)Oc2c(ccc3cccnc23)C1c1ccccc1 (configuration not stated) | – | > 100 | – | > 100 | – | 21.3 | – | > 100 | – | > 83.4 | – | > 28.5 | 2.37 | 15.1 | – | > 27 | – | > 74.1 | 1.45 | 65.6 |
| Cn1c(=O)c2[nH]c(CCS)nc2n(C)c1=O | – | > 100 | – | > 100 | – | > 100 | – | > 100 | – | > 100 | – | > 100 | – | > 100 | – | > 100 | – | > 100 | – | > 100 |
| COc1ccccc1CNC(=O)/C=C/c1ccc(O)c(O)c1 | 24.5 | > 100 | 48.2 | > 100 | 52.6 | > 100 | 15.6 | 86.3 | 48.4 | > 100 | 77.6 | > 100 | 34.7 | > 100 | > 100 | > 100 | 48.2 | > 100 | 43.4 | > 100 |
| COC(=O)C[C@@H]1CC=CC(=O)/C1=C(O)/C=C/c1ccccc1 | 0.268 | 0.743 | 1.85 | 3.91 | 0.169 | 0.329 | 0.294 | 1.15 | 1.33 | 2.82 | 0.7 | 2.13 | 0.303 | 1.34 | 1.63 | 3.56 | 1.57 | 4.84 | 0.549 | 2.66 |
| Fc1cccc(-c2nc(-c3c[nH]c4ncccc34)cs2)c1 | 9.68 | > 100 | 2.46 | > 100 | 7.9 | > 100 | > 100 | > 100 | 0.128 | 18.6 | 71.1 | > 100 | > 100 | > 100 | > 100 | > 100 | 22.6 | > 100 | 2.34 | > 100 |
| Cc1nc2sc(C(=O)Nc3cccc(Cl)c3C)c(N)c2cc1C(O)c1ccccc1 (configuration not stated) | 0.0881 | 14.8 | 0.268 | 21.4 | 0.0404 | 10.9 | 0.033 | 10.5 | 2.31 | 14.2 | 0.0634 | 12.9 | 0.0388 | 3.05 | 0.0754 | 12.6 | 0.0604 | 29.1 | 0.0396 | 57.6 |
| Cc1cc(O)cc(-c2nn(C)cc2-c2cc(N3CCOCC3)nc(-c3cccnc3)n2)c1 | 3.68 | 41.2 | 10.5 | > 100 | 3.06 | > 100 | 2.63 | 23.4 | 1.66 | 8.64 | 5.31 | 60.3 | 2.84 | 10.9 | 6.28 | 31.1 | 4.84 | > 100 | 2.82 | 39 |
| O=CCC(O)C(O)C(O)CO (configuration not stated) | > 100 | > 100 | > 100 | > 100 | > 100 | > 100 | > 100 | > 100 | 1.74 | > 100 | > 100 | > 100 | > 100 | > 100 | > 100 | > 100 | > 100 | > 100 | > 100 | > 100 |
